{"source": "ChEMBL document CHEMBL1201862", "about": "“PubChem BioAssay data set” (2004)", "assay_in_all_cases": "NCI tumour cell line growth inhibition, 48 h", "key": {"[1]": {"tested_on": "786-0"}, "[2]": {"tested_on": "A549"}, "[3]": {"tested_on": "ACHN"}, "[4]": {"tested_on": "CAKI-1"}, "[5]": {"tested_on": "CCRF-CEM"}, "[6]": {"tested_on": "COLO 205"}, "[7]": {"tested_on": "DLD-1"}, "[8]": {"tested_on": "DMS-273"}, "[9]": {"tested_on": "EKVX"}, "[10]": {"tested_on": "HCT-116"}, "[11]": {"tested_on": "HCT-15"}, "[12]": {"tested_on": "HL-60"}, "[13]": {"tested_on": "HOP-18"}, "[14]": {"tested_on": "HOP-62"}, "[15]": {"tested_on": "HOP-92"}, "[16]": {"tested_on": "HT-29"}, "[17]": {"tested_on": "IGROV-1"}, "[18]": {"tested_on": "K562"}, "[19]": {"tested_on": "KM12"}, "[20]": {"tested_on": "LOX IMVI"}, "[21]": {"tested_on": "M14"}, "[22]": {"tested_on": "M19-MEL"}, "[23]": {"tested_on": "MOLT-4"}, "[24]": {"tested_on": "NCI-H226"}, "[25]": {"tested_on": "NCI-H23"}, "[26]": {"tested_on": "NCI-H460"}, "[27]": {"tested_on": "NCI-H522"}, "[28]": {"tested_on": "OVCAR-3"}, "[29]": {"tested_on": "OVCAR-4"}, "[30]": {"tested_on": "OVCAR-5"}, "[31]": {"tested_on": "OVCAR-8"}, "[32]": {"tested_on": "RPMI-8226"}, "[33]": {"tested_on": "RXF 393"}, "[34]": {"tested_on": "SF-268"}, "[35]": {"tested_on": "SF-295"}, "[36]": {"tested_on": "SF-539"}, "[37]": {"tested_on": "SK-MEL-28"}, "[38]": {"tested_on": "SK-MEL-2"}, "[39]": {"tested_on": "SK-MEL-5"}, "[40]": {"tested_on": "SK-OV-3"}, "[41]": {"tested_on": "SN12C"}, "[42]": {"tested_on": "SNB-78"}, "[43]": {"tested_on": "SR"}, "[44]": {"tested_on": "SW-620"}, "[45]": {"tested_on": "TK-10"}, "[46]": {"tested_on": "U-251"}, "[47]": {"tested_on": "UACC-62"}, "[48]": {"tested_on": "UO-31"}, "[49]": {"tested_on": "XF498"}, "[50]": {"tested_on": "A498"}, "[51]": {"tested_on": "DMS-114"}, "[52]": {"tested_on": "HCC 2998"}, "[53]": {"tested_on": "KM-20L2"}, "[54]": {"tested_on": "LXFL 529"}, "[55]": {"tested_on": "Malme-3M"}, "[56]": {"tested_on": "SNB-19"}, "[57]": {"tested_on": "SNB-75"}, "[58]": {"tested_on": "UACC-257"}}, "note": "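Method: 48-hour compound exposure of cells in 96-well plates, five concentrations, linear interpolation of endpoints. Here, GI50 denotes the concentration required for 50% inhibition of growth.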 Calls of active or inactive are those of the source. No stated cut-off is given here; in the data, active = GI50 up to about 1.1 µM and inactive = higher."}
{"smiles": "COC(=O)CCC(=O)N1Cc2cc(C)ccc2N(C(=O)CCC(=O)OC)Cc2cc(C)ccc21", "values": [{"measurement": "GI50", "setting": "[1]", "result": "> 100 µM (inactive)"}, {"measurement": "GI50", "setting": "[2]", "result": "> 100 µM (inactive)"}, {"measurement": "GI50", "setting": "[3]", "result": "> 100 µM (inactive)"}, {"measurement": "GI50", "setting": "[4]", "result": "> 100 µM (inactive)"}, {"measurement": "GI50", "setting": "[5]", "result": "> 100 µM (inactive)"}, {"measurement": "GI50", "setting": "[6]", "result": "> 100 µM (inactive)"}, {"measurement": "GI50", "setting": "[7]", "result": "> 100 µM (inactive)"}, {"measurement": "GI50", "setting": "[8]", "result": "> 100 µM (inactive)"}, {"measurement": "GI50", "setting": "[9]", "result": "> 100 µM (inactive)"}, {"measurement": "GI50", "setting": "[10]", "result": "> 100 µM (inactive)"}, {"measurement": "GI50", "setting": "[11]", "result": "> 100", "unit": "µM"}, {"measurement": "GI50", "setting": "[12]", "result": "> 100 µM (inactive)"}, {"measurement": "GI50", "setting": "[13]", "result": "> 100 µM (inactive)"}, {"measurement": "GI50", "setting": "[14]", "result": "> 100 µM (inactive)"}, {"measurement": "GI50", "setting": "[15]", "result": "> 100 µM (inactive)"}, {"measurement": "GI50", "setting": "[16]", "result": "> 100 µM (inactive)"}, {"measurement": "GI50", "setting": "[17]", "result": "> 100 µM (inactive)"}, {"measurement": "GI50", "setting": "[18]", "result": "> 100 µM (inactive)"}, {"measurement": "GI50", "setting": "[19]", "result": "> 100 µM (inactive)"}, {"measurement": "GI50", "setting": "[20]", "result": "> 100 µM (inactive)"}, {"measurement": "GI50", "setting": "[21]", "result": "> 100 µM (inactive)"}, {"measurement": "GI50", "setting": "[22]", "result": "> 100 µM (inactive)"}, {"measurement": "GI50", "setting": "[23]", "result": "> 100 µM (inactive)"}, {"measurement": "GI50", "setting": "[24]", "result": "> 100 µM (inactive)"}, {"measurement": "GI50", "setting": "[25]", "result": "> 100 µM (inactive)"}, {"measurement": "GI50", "setting": "[26]", "result": "> 100 µM (inactive)"}, {"measurement": "GI50", "setting": "[27]", "result": "> 100 µM (inactive)"}, {"measurement": "GI50", "setting": "[28]", "result": "> 100 µM (inactive)"}, {"measurement": "GI50", "setting": "[29]", "result": "> 100 µM (inactive)"}, {"measurement": "GI50", "setting": "[30]", "result": "> 100 µM (inactive)"}, {"measurement": "GI50", "setting": "[31]", "result": "> 100 µM (inactive)"}, {"measurement": "GI50", "setting": "[32]", "result": "> 100 µM (inactive)"}, {"measurement": "GI50", "setting": "[33]", "result": "> 100 µM (inactive)"}, {"measurement": "GI50", "setting": "[34]", "result": "> 100 µM (inactive)"}, {"measurement": "GI50", "setting": "[35]", "result": "> 100 µM (inactive)"}, {"measurement": "GI50", "setting": "[36]", "result": "> 100 µM (inactive)"}, {"measurement": "GI50", "setting": "[37]", "result": "> 100 µM (inactive)"}, {"measurement": "GI50", "setting": "[38]", "result": "> 100 µM (inactive)"}, {"measurement": "GI50", "setting": "[39]", "result": "> 100 µM (inactive)"}, {"measurement": "GI50", "setting": "[40]", "result": "> 100 µM (inactive)"}, {"measurement": "GI50", "setting": "[41]", "result": "> 100 µM (inactive)"}, {"measurement": "GI50", "setting": "[42]", "result": "> 100 µM (inactive)"}, {"measurement": "GI50", "setting": "[43]", "result": "> 100 µM (inactive)"}, {"measurement": "GI50", "setting": "[44]", "result": "> 100 µM (inactive)"}, {"measurement": "GI50", "setting": "[45]", "result": "> 100 µM (inactive)"}, {"measurement": "GI50", "setting": "[46]", "result": "> 100 µM (inactive)"}, {"measurement": "GI50", "setting": "[47]", "result": "> 100 µM (inactive)"}, {"measurement": "GI50", "setting": "[48]", "result": "> 100 µM (inactive)"}, {"measurement": "GI50", "setting": "[49]", "result": "> 100 µM (inactive)"}]}
{"smiles": "COC(=O)C1=C(C)C(=O)C2(CCCCCC2C(=O)OC)C1", "note": "(centres undefined)", "values": [{"measurement": "GI50", "setting": "[1]", "result": "> 100 µM (inactive)"}, {"measurement": "GI50", "setting": "[50]", "result": "> 100 µM (inactive)"}, {"measurement": "GI50", "setting": "[2]", "result": "> 100 µM (inactive)"}, {"measurement": "GI50", "setting": "[3]", "result": "> 100 µM (inactive)"}, {"measurement": "GI50", "setting": "[4]", "result": "> 100 µM (inactive)"}, {"measurement": "GI50", "setting": "[5]", "result": "> 100 µM (inactive)"}, {"measurement": "GI50", "setting": "[6]", "result": "> 100 µM (inactive)"}, {"measurement": "GI50", "setting": "[7]", "result": "> 100 µM (inactive)"}, {"measurement": "GI50", "setting": "[51]", "result": "> 100 µM (inactive)"}, {"measurement": "GI50", "setting": "[8]", "result": "> 100 µM (inactive)"}, {"measurement": "GI50", "setting": "[9]", "result": "> 100 µM (inactive)"}, {"measurement": "GI50", "setting": "[52]", "result": "> 100 µM (inactive)"}, {"measurement": "GI50", "setting": "[10]", "result": "> 100 µM (inactive)"}, {"measurement": "GI50", "setting": "[11]", "result": "> 100", "unit": "µM"}, {"measurement": "GI50", "setting": "[12]", "result": "> 100 µM (inactive)"}, {"measurement": "GI50", "setting": "[13]", "result": "> 100 µM (inactive)"}, {"measurement": "GI50", "setting": "[14]", "result": "68.7 µM (inactive)"}, {"measurement": "GI50", "setting": "[15]", "result": "> 100 µM (inactive)"}, {"measurement": "GI50", "setting": "[16]", "result": "> 100 µM (inactive)"}, {"measurement": "GI50", "setting": "[17]", "result": "> 100 µM (inactive)"}, {"measurement": "GI50", "setting": "[18]", "result": "> 100 µM (inactive)"}, {"measurement": "GI50", "setting": "[53]", "result": "> 100 µM (inactive)"}, {"measurement": "GI50", "setting": "[19]", "result": "> 100 µM (inactive)"}, {"measurement": "GI50", "setting": "[54]", "result": "> 100 µM (inactive)"}, {"measurement": "GI50", "setting": "[21]", "result": "> 100 µM (inactive)"}, {"measurement": "GI50", "setting": "[22]", "result": "> 100 µM (inactive)"}, {"measurement": "GI50", "setting": "[23]", "result": "> 100 µM (inactive)"}, {"measurement": "GI50", "setting": "[55]", "result": "> 100 µM (inactive)"}, {"measurement": "GI50", "setting": "[24]", "result": "> 100 µM (inactive)"}, {"measurement": "GI50", "setting": "[25]", "result": "> 100 µM (inactive)"}, {"measurement": "GI50", "setting": "[26]", "result": "> 100 µM (inactive)"}, {"measurement": "GI50", "setting": "[27]", "result": "65.2 µM (inactive)"}, {"measurement": "GI50", "setting": "[29]", "result": "> 100 µM (inactive)"}, {"measurement": "GI50", "setting": "[30]", "result": "> 100 µM (inactive)"}, {"measurement": "GI50", "setting": "[31]", "result": "> 100 µM (inactive)"}, {"measurement": "GI50", "setting": "[32]", "result": "> 100 µM (inactive)"}, {"measurement": "GI50", "setting": "[33]", "result": "> 100 µM (inactive)"}, {"measurement": "GI50", "setting": "[34]", "result": "> 100 µM (inactive)"}, {"measurement": "GI50", "setting": "[35]", "result": "> 100 µM (inactive)"}, {"measurement": "GI50", "setting": "[36]", "result": "63.7 µM (inactive)"}, {"measurement": "GI50", "setting": "[37]", "result": "> 100 µM (inactive)"}, {"measurement": "GI50", "setting": "[38]", "result": "> 100 µM (inactive)"}, {"measurement": "GI50", "setting": "[39]", "result": "> 100 µM (inactive)"}, {"measurement": "GI50", "setting": "[40]", "result": "> 100 µM (inactive)"}, {"measurement": "GI50", "setting": "[41]", "result": "> 100 µM (inactive)"}, {"measurement": "GI50", "setting": "[56]", "result": "> 100 µM (inactive)"}, {"measurement": "GI50", "setting": "[57]", "result": "> 100 µM (inactive)"}, {"measurement": "GI50", "setting": "[42]", "result": "> 100 µM (inactive)"}, {"measurement": "GI50", "setting": "[43]", "result": "> 100 µM (inactive)"}, {"measurement": "GI50", "setting": "[44]", "result": "> 100 µM (inactive)"}, {"measurement": "GI50", "setting": "[45]", "result": "> 100 µM (inactive)"}, {"measurement": "GI50", "setting": "[46]", "result": "> 100 µM (inactive)"}, {"measurement": "GI50", "setting": "[58]", "result": "> 100 µM (inactive)"}, {"measurement": "GI50", "setting": "[47]", "result": "> 100 µM (inactive)"}, {"measurement": "GI50", "setting": "[48]", "result": "> 100 µM (inactive)"}]}
